Patent publication US10202361B2, “Pyridazinones as herbicides” (E I DU PONT DE NEMOURS AND COMPANY, priority 2014, dated 2019)
Read-outs that look alike come from different tables or passages of the source.

Key:
Assay type in all cases: in vivo
[1] = test system: barnyardgrass (Echinochloa crus-galli); assay: Test A pre-/postemergence greenhouse herbicide test; details: Echinochloa crus-galli, 240 h, 0 to 100 scale (0 no effect, 100 complete control), approx. 10 d, read-out: Plant response rating, Barnyardgrass; for pest or weed control at 125 g/ha: 125 g ai/ha; for pest or weed control at 500 g/ha: 500 g ai/ha
Method in brief: (§1)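 Pre + post applications, simultaneous; formulation = non-phytotoxic solvent mix incl. surfactant. Post: 1–2 leaf stage, 2–10 cm. Soil: loam/sand. Greenhouse ~10 d, visual rating 0 (no effect) to 100 (complete control) vs untreated.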

corn (Zea mays) = assay: as above; details: Zea mays, 240 h, 0 to 100 scale (0 no effect, 100 complete control), approx. 10 d; for Corn plant response rating (crop injury, 0 = no effect, 100 = complete kill) at 125 g/ha: 125 g ai/ha; for Corn plant response rating (crop injury, 0 = no effect, 100 = complete kill) at 500 g/ha: 500 g ai/ha
Method in brief: as §1

[2] = test system: crabgrass, Large (large crabgrass, Digitaria sanguinalis); assay: as above; details: Digitaria sanguinalis, 240 h, 0 to 100 scale (0 no effect, 100 complete control), approx. 10 d, read-out: Plant response rating, Crabgrass, Large; for pest or weed control at 125 g/ha: 125 g ai/ha; for pest or weed control at 500 g/ha: 500 g ai/ha
Method in brief: as §1

[3] = test system: foxtail, giant (giant foxtail, Setaria faberii); assay: as above; details: Setaria faberi, 240 h, 0 to 100 scale (0 no effect, 100 complete control), approx. 10 d, read-out: Plant response rating, Foxtail, Giant; for pest or weed control at 125 g/ha: 125 g ai/ha; for pest or weed control at 500 g/ha: 500 g ai/ha
Method in brief: as §1

[4] = test system: morningglory (Ipomoea spp.); assay: as above; details: Ipomoea, 240 h, 0 to 100 scale (0 no effect, 100 complete control), approx. 10 d, read-out: Plant response rating, Morningglory; for pest or weed control at 125 g/ha: 125 g ai/ha; for pest or weed control at 500 g/ha: 500 g ai/ha
Method in brief: as §1

[5] = test system: pigweed (Amaranthus retroflexus); assay: as above; details: Amaranthus retroflexus, 240 h, 0 to 100 scale (0 no effect, 100 complete control), approx. 10 d, read-out: Plant response rating, Pigweed; for pest or weed control at 125 g/ha: 125 g ai/ha; for pest or weed control at 500 g/ha: 500 g ai/ha
Method in brief: as §1

[6] = test system: velvetleaf (Abutilon theophrasti); assay: as above; details: Abutilon theophrasti, 240 h, 0 to 100 scale (0 no effect, 100 complete control), approx. 10 d, read-out: Plant response rating, Velvetleaf; for pest or weed control at 125 g/ha: 125 g ai/ha; for pest or weed control at 500 g/ha: 500 g ai/ha
Method in brief: as §1

[7] = test system: wheat (Triticum aestivum); assay: as above; details: Triticum aestivum, 240 h, 0 to 100 scale (0 no effect, 100 complete control), approx. 10 d, read-out: Plant response rating, Wheat; for plant injury at 125 g/ha: 125 g ai/ha; for plant injury at 500 g/ha: 500 g ai/ha
Method in brief: as §1

soybean (Glycine max) = assay: Test C pre-/postemergence greenhouse herbicide test; details: Glycine max, post-emergence, Soybean, Postemergence, read-out: Plant response rating
Description: Seeds of plant species selected from blackgrass (Alopecurus myosuroides), bromegrass, downy (downy bromegrass, Bromus tectorum), foxtail, green (green foxtail, Setaria viridis), ryegrass, Italian (Italian ryegrass, Lolium multiflorum), wheat (winter wheat, Triticum aestivum), oat, wild (wild oat, Avena fatua), galium (catchweed bedstraw, Galium aparine), bermudagrass (Cynodon dactylon), surinam grass (Brachiaria decumbens), cocklebur (common cocklebur, Xanthium strumarium), corn (Zea mays), crabgrass, large (large crabgrass, Digitaria sanguinalis), cupgrass, woolly (woolly cupgrass, Eriochloa villosa), foxtail, giant (giant foxtail, Setaria faberii), goosegrass (Eleusine indica), johnsongrass (Sorghum halepense), kochia (Kochia scoparia), lambsquarters (Chenopodium album), morningglory (Ipomoea coccinea), nightshade (eastern black nightshade, Solanum ptycanthum), nutsedge, yellow (yellow nutsedge, Cyperus esculentus), pigweed (Amaranthus retroflexus), ragweed (common ragweed, Ambrosia elatior), soybean (Glycine max), sunflower (common oilseed sunflower, Helianthus annuus), Russian thistle (Salsola kali), barnyardgrass (Echinochloa crus-galli), oilseed rape (Brassica napus), waterhemp (common waterhemp, Amaranthus rudis), and velvetleaf (Abutilon theophrasti) were planted into a blend of loam soil and sand and treated preemergence with test chemicals formulated in a non-phytotoxic solvent mixture which included a surfactant.
(§2) At the same time, plants selected from these crop and weed species and also barley (winter barley, Hordeum vulgare), canarygrass (Phalaris minor), windgrass (Apera spica-venti), deadnettle (henbit deadnettle, Lamium amplexicaule), and chickweed (common chickweed, Stellaria media) were planted in pots containing Redi-Earth® planting medium (Scotts Company, 14111 Scottslawn Road, Marysville, Ohio 43041) comprising spaghnum peat moss, vermiculite, wetting agent and starter nutrients and treated with postemergence applications of test chemicals formulated in the same manner. Plants ranged in height from 2 to 18 cm (1- to 4-leaf stage) for postemergence treatments. Treated plants and controls were maintained in a greenhouse for 13 to 15 d, after which time all species were compared to controls and visually evaluated. Plant response ratings, summarized in Table C, are based on a scale of 0 to 100 where 0 is no effect and 100 is complete control. A dash (-) response means no test result.

[8] = test system: chickweed (common chickweed, Stellaria media); assay: Test C postemergence greenhouse herbicide test
Description: as §2

**Q.** With Cc1cc(Oc2ccnc(C(F)(F)F)c2)nn(-c2ccc(C(F)(F)F)cc2)c1=O [Compound 6, 4-methyl-2-[4-(trifluoromethyl)phenyl]-6-[[2-(trifluoromethyl)-4-pyridinyl]oxy]-3(2H)-pyridazinone] as the compound, how does the pest or weed control at 125 g/ha ([1]; post-emergence, Postemergence) read?
**A.** 50%

**Q.** And the pest or weed control at 500 g/ha ([1]; post-emergence, Postemergence)?
**A.** 90%

**Q.** And the pest or weed control at 125 g/ha ([1]; pre-emergence, Preemergence)?
**A.** 40%

**Q.** And the pest or weed control at 500 g/ha ([1]; pre-emergence, Preemergence)?
**A.** 80%

**Q.** And the Corn plant response rating (crop injury, 0 = no effect, 100 = complete kill) at 125 g/ha (corn (Zea mays); post-emergence, Postemergence)?
**A.** 40%

**Q.** What about the Corn plant response rating (crop injury, 0 = no effect, 100 = complete kill) at 500 g/ha (corn (Zea mays); post-emergence, Postemergence) of the same compound?
**A.** 50%

**Q.** What about the Corn plant response rating (crop injury, 0 = no effect, 100 = complete kill) at 125 g/ha (corn (Zea mays); pre-emergence, Preemergence) of the same compound?
**A.** 10%

**Q.** And the Corn plant response rating (crop injury, 0 = no effect, 100 = complete kill) at 500 g/ha (corn (Zea mays); pre-emergence, Preemergence)?
**A.** 20%

**Q.** And the pest or weed control at 125 g/ha ([2]; post-emergence, Postemergence)?
**A.** 80%

**Q.** What about the pest or weed control at 500 g/ha ([2]; post-emergence, Postemergence) of the same compound?
**A.** 90%

**Q.** What about the pest or weed control at 125 g/ha ([2]; pre-emergence, Preemergence) of the same compound?
**A.** 100%

**Q.** And the pest or weed control at 500 g/ha ([2]; pre-emergence, Preemergence)?
**A.** 100%

**Q.** What about the pest or weed control at 125 g/ha ([3]; post-emergence, Postemergence) of the same compound?
**A.** 80%

**Q.** And the pest or weed control at 500 g/ha ([3]; post-emergence, Postemergence)?
**A.** 100%

**Q.** What about the pest or weed control at 125 g/ha ([3]; pre-emergence, Preemergence) of the same compound?
**A.** 100%

**Q.** And the pest or weed control at 500 g/ha ([3]; pre-emergence, Preemergence)?
**A.** 100%

**Q.** And the pest or weed control at 125 g/ha ([4]; post-emergence, Postemergence)?
**A.** 80%

**Q.** What about the pest or weed control at 500 g/ha ([4]; post-emergence, Postemergence) of the same compound?
**A.** 100%

**Q.** And the pest or weed control at 125 g/ha ([4]; pre-emergence, Preemergence)?
**A.** 80%

**Q.** What about the pest or weed control at 500 g/ha ([4]; pre-emergence, Preemergence) of the same compound?
**A.** 90%

**Q.** What about the pest or weed control at 125 g/ha ([5]; post-emergence, Postemergence) of the same compound?
**A.** 100%

**Q.** What about the pest or weed control at 500 g/ha ([5]; post-emergence, Postemergence) of the same compound?
**A.** 100%

**Q.** What about the pest or weed control at 125 g/ha ([5]; pre-emergence, Preemergence) of the same compound?
**A.** 100%

**Q.** And the pest or weed control at 500 g/ha ([5]; pre-emergence, Preemergence)?
**A.** 100%

**Q.** And the pest or weed control at 125 g/ha ([6]; post-emergence, Postemergence)?
**A.** 100%

**Q.** What about the pest or weed control at 500 g/ha ([6]; post-emergence, Postemergence) of the same compound?
**A.** 100%

**Q.** What about the pest or weed control at 125 g/ha ([6]; pre-emergence, Preemergence) of the same compound?
**A.** 70%

**Q.** What about the pest or weed control at 500 g/ha ([6]; pre-emergence, Preemergence) of the same compound?
**A.** 80%

**Q.** What about the plant injury at 125 g/ha ([7]; post-emergence, Postemergence) of the same compound?
**A.** 40%

**Q.** And the plant injury at 500 g/ha ([7]; post-emergence, Postemergence)?
**A.** 50%

**Q.** And the plant injury at 125 g/ha ([7]; pre-emergence, Preemergence)?
**A.** 10%

**Q.** And the plant injury at 500 g/ha ([7]; pre-emergence, Preemergence)?
**A.** 30%

**Q.** What about the plant injury at 31 g/ha (soybean (Glycine max); 31 g ai/ha) of the same compound?
**A.** 35%

**Q.** And the plant injury at 62 g/ha (soybean (Glycine max); 62 g ai/ha)?
**A.** 50%

**Q.** What about the plant injury at 125 g/ha (soybean (Glycine max); 125 g ai/ha) of the same compound?
**A.** 50%

**Q.** And the plant injury at 250 g/ha (soybean (Glycine max); 250 g ai/ha)?
**A.** 65%

**Q.** And the Plant response rating ([8]; 31 g ai/ha)?
**A.** 80

**Q.** What about the Plant response rating ([8]; 62 g ai/ha) of the same compound?
**A.** 95

**Q.** What about the Plant response rating ([8]; 125 g ai/ha) of the same compound?
**A.** 95

**Q.** What about the Plant response rating ([8]; 250 g ai/ha) of the same compound?
**A.** 98
